Assay results from the NIST ThermoML archive (doi:10.1021/je7003758).

Test: xn = mol fraction of the nth substance listed
Conditions: 298.15 K, Liquid

ClCCCCCl [1,4-dichlorobutane] + CN1CCCC1=O
mass density [kg/m3]
Conditions | x2 = 0.1039 | x2 = 0.2034 | x2 = 0.3036 | x2 = 0.402 | x2 = 0.5025 | x2 = 0.5968 | x2 = 0.7003 | x2 = 0.8008 | x2 = 0.8971
100 kPa | 1123.8 | 1114.2 | 1104.3 | 1094.4 | 1084 | 1073.9 | 1062.7 | 1051.4 | 1040.2
500 kPa | 1124.1 | 1114.6 | 1104.6 | 1094.7 | 1084.2 | 1074.2 | 1062.9 | 1051.6 | 1040.4
1000 kPa | 1124.5 | 1114.9 | 1104.9 | 1095 | 1084.5 | 1074.5 | 1063.2 | 1051.9 | 1040.7
1500 kPa | 1124.9 | 1115.2 | 1105.3 | 1095.3 | 1084.8 | 1074.8 | 1063.6 | 1052.2 | 1041
2000 kPa | 1125.2 | 1115.6 | 1105.7 | 1095.7 | 1085.2 | 1075.1 | 1063.8 | 1052.5 | 1041.3
2500 kPa | 1125.5 | 1115.9 | 1106 | 1096 | 1085.5 | 1075.4 | 1064.1 | 1052.8 | 1041.6
2900 kPa | – | – | 1106.3 | – | – | – | – | – | –
3000 kPa | 1125.9 | 1116.3 | – | 1096.3 | 1085.8 | 1075.7 | 1064.4 | 1053 | 1041.8
3500 kPa | 1126.3 | 1116.6 | 1106.6 | 1096.7 | 1086.1 | 1076 | 1064.7 | 1053.4 | 1042.1
4000 kPa | 1126.7 | 1117 | 1107 | 1097 | 1086.4 | 1076.4 | 1065 | 1053.6 | 1042.3
4500 kPa | 1127 | 1117.3 | 1107.4 | 1097.3 | 1086.8 | 1076.6 | 1065.3 | 1053.9 | 1042.7
4900 kPa | 1127.3 | – | – | – | – | 1076.9 | – | – | –
5000 kPa | – | 1117.7 | 1107.7 | 1097.6 | 1087.1 | – | 1065.6 | 1054.2 | 1042.9
5500 kPa | 1127.7 | 1118 | 1108 | 1098 | 1087.4 | 1077.2 | 1065.9 | 1054.4 | 1043.1
5900 kPa | 1128.1 | – | – | – | 1087.7 | – | – | – | –
6000 kPa | – | 1118.4 | 1108.3 | 1098.3 | – | 1077.6 | 1066.2 | 1054.8 | 1043.5
6500 kPa | 1128.4 | 1118.8 | 1108.7 | 1098.6 | 1088 | 1077.8 | 1066.5 | 1055 | 1043.7
7000 kPa | 1128.8 | 1119.1 | 1109 | 1099 | 1088.4 | 1078.2 | 1066.8 | 1055.3 | 1044
7400 kPa | – | – | – | – | – | – | – | – | 1044.2
7500 kPa | – | 1119.5 | 1109.4 | 1099.3 | 1088.6 | 1078.5 | 1067.1 | 1055.6 | –
7600 kPa | 1129.2 | – | – | – | – | – | – | – | –
7900 kPa | – | – | – | – | 1089 | – | – | – | –
8000 kPa | 1129.5 | 1119.8 | 1109.7 | 1099.6 | – | 1078.8 | 1067.4 | 1055.9 | 1044.5
8400 kPa | 1129.8 | – | – | – | – | – | – | – | –
8500 kPa | – | 1120.1 | 1110.1 | 1099.9 | 1089.3 | 1079.1 | 1067.6 | 1056.2 | 1044.8
8900 kPa | 1130.2 | – | – | – | – | – | – | – | –
9000 kPa | – | 1120.5 | 1110.4 | 1100.3 | 1089.6 | 1079.4 | 1068 | 1056.4 | 1045.1
9400 kPa | – | – | – | – | – | – | – | – | 1045.3
9500 kPa | 1130.6 | 1120.8 | 1110.7 | 1100.3 | 1089.9 | 1079.7 | 1068.2 | 1056.7 | –
10000 kPa | 1131 | 1121.3 | 1111.1 | 1101 | 1090.3 | 1080 | 1068.6 | 1057.1 | 1045.6
10500 kPa | 1131.4 | 1121.6 | 1111.4 | 1101.3 | 1090.6 | 1080.3 | 1068.9 | 1057.3 | 1045.9
11000 kPa | 1131.7 | 1122 | 1111.8 | 1101.6 | 1090.9 | 1080.6 | 1069.2 | 1057.6 | 1046.1
11500 kPa | 1132.1 | 1122.3 | 1112.1 | 1101.9 | 1091.2 | 1080.9 | 1069.4 | 1057.9 | 1046.4
11900 kPa | – | – | – | – | – | – | – | – | 1046.6
12000 kPa | 1132.5 | 1122.6 | 1112.4 | 1102.2 | 1091.6 | 1081.2 | 1069.7 | 1058.2 | –
12400 kPa | – | – | – | – | – | – | – | – | 1046.9
12500 kPa | 1132.8 | 1122.9 | 1112.8 | 1102.6 | 1091.9 | 1081.5 | 1070 | 1058.4 | –
12900 kPa | – | – | – | – | 1092.2 | – | – | – | –
13000 kPa | 1133.1 | 1123.3 | 1113.1 | 1102.9 | – | 1081.8 | 1070.3 | 1058.7 | 1047.2
13400 kPa | – | – | – | – | – | – | – | 1059 | –
13500 kPa | 1133.5 | 1123.6 | 1113.4 | 1103.2 | 1092.5 | 1082.1 | 1070.5 | – | 1047.4
13900 kPa | – | – | 1113.7 | – | – | – | – | – | –
14000 kPa | 1133.8 | 1124 | – | 1103.5 | 1092.8 | 1082.4 | 1070.9 | 1059.2 | 1047.7
14400 kPa | – | – | – | – | – | – | 1071.1 | 1059.5 | –
14500 kPa | 1134.2 | 1124.3 | 1114 | 1103.8 | 1093.1 | 1082.6 | – | – | 1048
14900 kPa | – | – | – | – | 1093.3 | – | – | – | –
15000 kPa | 1134.5 | 1124.7 | 1114.4 | 1104.1 | – | 1083 | 1071.5 | 1059.7 | 1048.3
15400 kPa | – | – | – | – | 1093.6 | – | – | – | –
15500 kPa | 1134.8 | 1125 | 1114.7 | 1104.4 | – | 1083.3 | 1071.7 | 1060 | 1048.6
15900 kPa | – | – | – | – | – | – | – | – | 1048.8
16000 kPa | 1135.2 | 1125.3 | 1115.1 | 1104.8 | 1094 | 1083.5 | 1072 | 1060.3 | –
16400 kPa | – | – | – | 1105 | – | – | – | – | –
16500 kPa | 1135.5 | 1125.6 | 1115.4 | – | 1094.2 | 1083.8 | 1072.2 | 1060.6 | 1049
16900 kPa | – | – | 1115.6 | – | – | – | – | – | –
17000 kPa | 1135.9 | 1126 | – | 1105.4 | 1094.5 | 1084.1 | 1072.5 | 1060.8 | 1049.3
17500 kPa | 1136.2 | 1126.3 | 1116 | 1105.7 | 1094.8 | 1084.4 | 1072.8 | 1061.1 | 1049.5
18000 kPa | 1136.5 | 1126.6 | 1116.3 | 1106 | 1095.1 | 1084.7 | 1073.1 | 1061.3 | 1049.8
18500 kPa | 1136.9 | 1126.9 | 1116.6 | 1106.2 | 1095.4 | 1085 | 1073.3 | 1061.6 | 1050.1
19000 kPa | 1137.3 | 1127.3 | 1117 | 1106.6 | 1095.8 | 1085.3 | 1073.7 | 1061.9 | 1050.3
19500 kPa | 1137.6 | 1127.6 | 1117.3 | 1106.9 | 1096 | 1085.6 | 1074 | 1062.2 | 1050.6
20000 kPa | 1138 | 1128 | 1117.7 | 1107.4 | 1096.5 | 1086 | 1074.5 | 1062.4 | 1050.9
